Test results as given in patent publication EP1082958A2, “5-HT1F agonists in chronic pain” (ELI LILLY AND COMPANY, priority 1996, dated 1998).

Columns and labels:
5-HT1E = biological target: T1, 5-HT1E (Homo sapiens, UniProt P28566); assay: Radioligand binding ([3H]5-HT displacement) to cloned 5-HT1E receptor; conditions: read-out: BINDING TO SEROTONIN (5-HT1) RECEPTOR SUBTYPES (Ki-nM) 5-HT1E, 4.5-5.5 nM [3H]5-HT, 37°C, Ki from IC50 by Cheng-Prusoff
T1 construct: expressed in transfected cells; host or cells: transfected Ltk- cells (by analogy 'as described supra')
T1 sequence (P28566 whole entry, species assumed): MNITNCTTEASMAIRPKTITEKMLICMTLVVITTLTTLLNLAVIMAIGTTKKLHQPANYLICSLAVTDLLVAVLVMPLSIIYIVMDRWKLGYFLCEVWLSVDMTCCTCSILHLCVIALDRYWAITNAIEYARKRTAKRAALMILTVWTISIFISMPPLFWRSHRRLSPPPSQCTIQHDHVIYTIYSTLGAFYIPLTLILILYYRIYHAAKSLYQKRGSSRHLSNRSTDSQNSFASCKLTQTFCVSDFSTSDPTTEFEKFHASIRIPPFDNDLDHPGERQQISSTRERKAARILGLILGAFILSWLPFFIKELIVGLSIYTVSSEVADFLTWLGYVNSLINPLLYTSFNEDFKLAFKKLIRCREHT
Protocol: Membrane Preparation: Membranes were prepared from transfected Ltk- cells which were grown to 100% confluency. The cells were washed twice with phosphate-buffered saline, scraped from the culture dishes into 5 mL of ice-cold phosphate-buffered saline, and centrifuged at 200 x g for 5 minutes ^at 4°C. The pellet was resuspended in 2.5 mL of ice-cold Tris buffer (20 mM Tris HCl, pH=7.4 a^t […]) and homogenized with a Wheaton tissue grinder. The lysate was subsequently centrifuged at 200 x g for 5 minutes at 4°C to pellet large fragments which were discarded. The supernatant was collected and centrifuged at 40,000 x g for 20 minutes at 4°C. […] Protein concentrations were determined by the method of Bradford (Anal. Biochem., 72, 248-254 (1976)).
Radioligand Binding: [^3H-5-HT] binding was performed using slight modifications of the 5-HT1D assay conditions reported by Herrick-Davis and Titeler (J. Neurochem., 50, 1624-1631 (1988)) with the omission of masking ligands. […] Incubation times were 30 minutes for both saturation and displacement studies based upon initial investigations which determined equilibrium binding conditions. […] Binding data was analyzed by computer-assisted nonlinear regression analysis (Accufit and Accucomp, Lunden Software, Chagrin Falls, OH). […]

[1] = tested on: neuronal protein extravasation; assay: Protein extravasation after electrical stimulation of the trigeminal ganglion (Evans Blue in dura); assay type: in vivo, Harlan Sprague-Dawley rats or guinea pigs; conditions: 10 minutes before stimulation of the left trigeminal ganglion, dose inhibiting extravasation by 50%, approximated from dose-response curve, rats or guinea pigs (species not given)
Protocol: Harlan Sprague-Dawley rats (225-325 g) or guinea pigs from Charles River Laboratories (225-325 g) were anesthetized with sodium pentobarbital intraperitoneally (65 mg/kg or 45 mg/kg respectively) and placed in a stereotaxic frame (David Kopf Instruments) with the incisor bar set at - 3.5 mm for rats or -4.0 mm for guinea pigs. Following a midline sagital scalp incision, two pairs of bilateral holes were drilled through the skull (6 mm posteriorly, 2.0 and 4.0 mm laterally in rats; 4 mm posteriorly and 3.2 and 5.2 mm laterally in guinea pigs, all coordinates referenced to bregma). Pairs of stainless steel stimulating electrodes (Rhodes Medical Systems, Inc.) were lowered through the holes in both hemispheres to a depth of 9 mm (rats) or 10.5 mm (guinea pigs) from dura.
The femoral vein was exposed and a dose of the test compound was injected intravenously (1 mL/kg). Approximately 7 minutes later, a 50 mg/kg dose of Evans Blue, a fluorescent dye, was also injected intravenously. The Evans Blue complexed with proteins in the blood and functioned as a marker for protein extravasation. Exactly 10 minutes post-injection of the test compound, the left trigeminal ganglion was stimulated for 3 minutes at a current intensity of 1.0 mA (5 Hz, 4 msec duration) with a Model 273 potentiostat/ galvanostat (EG&G Princeton Applied Research).
Fifteen minutes following stimulation, the animals were killed and exsanguinated with 20 mL of saline. The top of the skull was removed to facilitate the collection of the dural membranes. The membrane samples were removed from both hemispheres, rinsed with water, and spread flat on microscopic slides. Once dried, the tissues were coverslipped with a 70% glycerol/water solution.
A fluorescence microscope (Zeiss) equipped with a grating monochromator and a spectrophotometer was used to quantify the amount of Evans Blue dye in each sample. An excitation wavelength of approximately 535 nm was utilized and the emission intensity at 600 nm was determined. The microscope was equipped with a motorized stage and also interfaced with a personal computer. This facilitated the computer-controlled movement of the stage with fluorescence measurements at 25 points (500 µm steps) on each dural sample. The mean and standard deviation of the measurements was determined by the computer.
The extravasation induced by the electrical stimulation of the trigeminal ganglion was an ipsilateral effect (i.e. occurs only on the side of the dura in which the trigeminal ganglion was stimulated). This allows the other (unstimulated) half of the dura to be used as a control. The ratio of the amount of extravasation in the dura from the stimulated side compared to the unstimulated side dura was calculated. […]

Structure (SMILES)	Ki (5-HT1E) [nM]	Inhibition of Protein Extravasation, i.v. ID50 [1] [mmol/kg]
CNS(=O)(=O)Cc1ccc2[nH]cc(CCN(C)C)c2c1.O=C(O)CCC(=O)O [Compound I, 3-[2-(dimethylamino)ethyl]-N-methyl-1H-indole-5-methanesulfonamide butane-1,4-dioate (1:1)]	2520	2.6e-08
O=C(O)C(=O)O.Oc1ccc2[nH]cc(C3CCNCC3)c2c1 [Compound III, 5-hydroxy-3-(4-piperidinyl)-1H-indole oxalate]	–	8.9e-09
CCN(CC)C1CCc2cccc(Cl)c2C1.Cl (centres unmarked) [Compound IV, 8-chloro-2-diethylamino-1,2,3,4-tetrahydronaphthalene hydrochloride]	–	1.2e-07
CN(C)C1CCc2[nH]c3ccc(O)cc3c2C1 (centres unmarked) [Compound V, 6-hydroxy-3-dimethylamino-1,2,3,4-tetrahydrocarbazole]	–	8.7e-09
